Assay results as given in paper PMC4166525 (Organic letters, 2013).

Biological target: T1, EgtB (Mycolicibacterium smegmatis, UniProt A0R5N0)
T1 sequence (A0R5N0 1-428): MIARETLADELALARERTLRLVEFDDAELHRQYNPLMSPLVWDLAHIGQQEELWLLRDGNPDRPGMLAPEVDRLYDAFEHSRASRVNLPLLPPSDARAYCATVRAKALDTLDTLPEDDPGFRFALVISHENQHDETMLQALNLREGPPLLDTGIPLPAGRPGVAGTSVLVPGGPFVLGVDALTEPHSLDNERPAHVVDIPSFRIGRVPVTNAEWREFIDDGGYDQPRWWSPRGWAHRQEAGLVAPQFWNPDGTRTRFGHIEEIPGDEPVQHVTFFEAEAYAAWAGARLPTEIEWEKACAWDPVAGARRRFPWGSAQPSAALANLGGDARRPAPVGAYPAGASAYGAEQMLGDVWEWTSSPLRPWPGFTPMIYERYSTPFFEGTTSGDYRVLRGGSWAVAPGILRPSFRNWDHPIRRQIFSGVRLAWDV
Test: 1H-NMR assay of product […]
Assay type: biochemical
Details: co-substrate γ-Glu-Cys

In the case of `C[N+](C)(C)[C@@H](Cc1cnc[nH]1)C(=O)[O-]` [compound 2, hercynine], the “1H-NMR assay of product 3” value is reported as “Native EgtB reaction in ergothioneine biosynthesis”.
